SMILES strings stand for the structures.

For orientation: IC50 means the midpoint of a concentration-inhibition curve. Lower therefore signals greater potency.

For assay [1], the target named is T1, Lck (p56^lck) (Homo sapiens, UniProt P06239).
T1 construct: purchased Upstate Biotechnology, Inc., Lake Placid, N.Y. (UBI)
Nature of the assay: SRC-Inhibitor-Assay, time-resolved fluorescence kinase assay (Lck). The settings on record: ATP 5 μM; peptide 10 μM; enzyme 2.5 U/ml; pre-incubated 15 min at 15° C. Format: biochemical. An excerpt: (§1) The activity of the compounds according to this invention as inhibitors for the src-family tyrosine kinases was shown by using the following assay. As used herein Ro refers to the peptide: NH2-A-E-E-E-I-Y-G-E-F-E-A-K-K-K-K-CONH2(SEQ ID NO: 1); Ja133-Ro refers to the peptide: Ja133-G-Aminocaprylic acid-A-E-E-E-I-Y-G-E-F-E-A-K-K-K-K-CONH2(SEQ ID NO: 2), wherein Ja133 is LightCycler-Red 640-N-hydroxy succinimide ester; PT66 refers to a phosphotyrosine specific antibody which can detect the phoyphorylated tyrosine of protein tyrosine kinase; and TCEP refers to Tris(2-carboxyethyl)phosphine; Lck Cisbio Mab PT66-K refers to Anti-Phosphotyrosine (PT66)-Cryptate; and Src EG&G Wallac PT66 Eu-W1024 refers to Eu^3+-labelled Anti-Phosphotyrosine (PT66)-Cryptate.
(§2) whereby both peptides were synthesized by an optimized solid phase peptide synthesis protocol (Merrifield, Fed. Proc. Fed. Amer. Soc. Exp. Biol. 21(1962) 412) on a Zinsser SMP350 peptide synthesizer. Shortly, the peptide was assembled on 160 mg (22.8 μmol scale) of a Rink-Linker modified polystyrene solid phase by repeatedly conjugating an twenty fold excess of amino acids each protected by temporary piperidine labile Fmoc- and permanent acid labile tert-Bu-, BOC- and tert-BuO-groups depending on the side chain function. The substrate sequence AEEEIYGEFEAKKKK (SEQ ID NO: 1) was N-terminal additionally mounted with the spacer amino acids Aminocaprylic acid and Glycin. After cleavage of the N-terminal temporary protecting group the still attached and protected peptide was labeled with a 1.5 fold amount of LightCycler-Red 640-N-hydroxy succinimide ester (purchased by Roche Diagnostics GmbH) and triethylamine. After 3 hrs. the resin was washed with Dimethylformamide and Isopropanol until the eluates of the blue resin got colorless. […] The substrate was finally isolated by a preparative reverse phase HPLC purification. The purification yielded 12.2 mg RP-HPLC single peak pure blue material (lyophilisate). The identity was proven by Matrix Assisted Laser Desorption Ionization (MALDI) mass spectroscopy [2720.0]. Enzymes: Upstate Lck (p56^lck, active), Upstate Src (p60^c-src, partially purified) were purchased from Upstate Biotechnology, Inc., Lake Placid, N.Y. (UBI). Time-resolved Fluorescence Assay: Reader: Perkin Elmer, Wallac Viktor 1420-040 multilabel counter; Liquid handling system: Beckman Coulter, Biomek 2000. ATP, Tween 20, HEPES were purchased from Roche Molecular Biochemicals, MgCl2 and MnCl2 were purchased from Merck Eurolab, TCEP was purchased from Pierce, 384 Well low volume fluorescence plates was purchased from Falcon. Assay Description:
(§3) At first the enzyme is pre-incubated for 15 min. at 15° C. in aqueous solution with corresponding amounts of inhibitors according to this invention. Then the phosphorylation reaction is started by adding a reaction mixture, containing ATP, Peptide and PT66, and subsequent shaking. The proceeding of this reaction is immediately monitored using time resolved fluorescence spectroscopy in a suitable well plate reader.
(§4) The IC50-values can be obtained from the reaction rates by using a non-linear curve fit (EXCELFIT software, from ID Business Solution Ltd., Guilford, Surrey, UK).

Assay [2] deals with T2, Src (p60^c-src) (Homo sapiens, UniProt P12931).
T2 construct: purchased Upstate Biotechnology, Inc., Lake Placid, N.Y. (UBI)
Nature of the assay: SRC-Inhibitor-Assay, time-resolved fluorescence kinase assay (Src). Format: biochemical. Particulars: ATP 5 μM; peptide 10 μM; enzyme 2.5 U/ml; pre-incubated 15 min at 15° C.
From the text: as §1, §2, §3, §4

T2 sequence (P12931 whole entry): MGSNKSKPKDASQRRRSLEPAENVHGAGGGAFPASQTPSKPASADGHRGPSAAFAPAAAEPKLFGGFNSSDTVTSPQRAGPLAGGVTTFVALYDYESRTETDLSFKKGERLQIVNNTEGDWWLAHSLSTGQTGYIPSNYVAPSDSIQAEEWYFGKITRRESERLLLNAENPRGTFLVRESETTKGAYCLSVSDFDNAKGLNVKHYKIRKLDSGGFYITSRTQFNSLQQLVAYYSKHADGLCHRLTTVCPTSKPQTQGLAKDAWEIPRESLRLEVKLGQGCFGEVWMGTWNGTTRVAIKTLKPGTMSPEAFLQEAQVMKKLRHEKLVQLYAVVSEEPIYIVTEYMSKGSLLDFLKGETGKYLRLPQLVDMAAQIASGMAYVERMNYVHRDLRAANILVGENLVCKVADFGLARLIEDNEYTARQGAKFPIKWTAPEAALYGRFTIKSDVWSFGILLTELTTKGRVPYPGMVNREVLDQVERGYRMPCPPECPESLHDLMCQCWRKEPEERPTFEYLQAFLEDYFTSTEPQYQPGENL
T1 sequence (P06239 whole entry, species assumed): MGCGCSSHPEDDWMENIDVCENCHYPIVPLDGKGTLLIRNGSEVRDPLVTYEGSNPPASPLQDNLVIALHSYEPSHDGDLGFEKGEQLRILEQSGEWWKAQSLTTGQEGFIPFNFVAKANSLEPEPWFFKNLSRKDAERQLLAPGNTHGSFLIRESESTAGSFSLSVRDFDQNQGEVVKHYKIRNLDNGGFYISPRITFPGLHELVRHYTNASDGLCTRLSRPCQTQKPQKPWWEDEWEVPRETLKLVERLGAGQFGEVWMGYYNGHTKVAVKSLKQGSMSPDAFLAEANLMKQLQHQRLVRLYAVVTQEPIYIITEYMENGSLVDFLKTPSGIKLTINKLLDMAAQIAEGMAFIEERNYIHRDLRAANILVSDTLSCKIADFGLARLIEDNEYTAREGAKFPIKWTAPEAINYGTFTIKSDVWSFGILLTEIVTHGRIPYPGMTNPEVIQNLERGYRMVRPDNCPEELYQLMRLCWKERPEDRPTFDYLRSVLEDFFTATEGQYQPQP

As to `O=C(NC[C@H]1CCCN1)c1nc2nc(Nc3ccc(N4CCOCC4)cc3)ncc2cc1-c1c(Cl)cccc1Cl` [Example 1, 6-(2,6-Dichloro-phenyl)-2-(4-morpholin-4-yl-phenylamino)-pyrido[2,3-d]pyrimidine-7-carboxylic acid ((R)-1-pyrrolidin-2-ylmethyl)-amide], the IC50 is 1.7 nM in assay [1] and 0.4 nM in assay [2].

Take `CN1CCN(c2ccc(Nc3ncc4cc(-c5c(Cl)cccc5Cl)c(C(=O)NCCNS(C)(=O)=O)nc4n3)cc2)CC1` [Example 2, 6-(2,6-Dichloro-phenyl)-2-[4-(4-methyl-piperazin-1-yl)-phenylamino]-pyrido[2,3-d]pyrimidine-7-carboxylic acid (2-methanesulfonylamino-ethyl)-amide]: the IC50 in assay [1] was 1 nM; in assay [2], 0.3 nM.

As to `CS(=O)(=O)NCCNC(=O)c1nc2nc(Nc3cccc(SCCO)c3)ncc2cc1-c1c(Cl)cccc1Cl` [Example 3, 6-(2,6-Dichloro-phenyl)-2-[3-(2-hydroxy-ethylsulfanyl)-phenylamino]-pyrido[2,3-d]pyrimidine-7-carboxylic acid (2-methanesulfonylamino-ethyl)-amide], the results for the IC50 in assay [1] and in assay [2] were 2 nM and 0.7 nM, respectively.

For `N#Cc1nc2nc(Nc3ccc(OCCO)cc3)ncc2cc1-c1c(Cl)cccc1Cl` [Example 4, 6-(2,6-Dichloro-phenyl)-2-[4-(2-hydroxy-ethoxy)-phenylamino]-pyrido[2,3-d]pyrimidine-7-carbonitrile], the 50% inhibitory concentration (IC50) amounted to 6.4 nM in assay [1] and 1.7 nM in assay [2].

On to `NC(=O)c1nc2nc(Nc3ccc(OCCO)cc3)ncc2cc1-c1c(Cl)cccc1Cl` [Example 5, 6-(2,6-Dichloro-phenyl)-2-[4-(2-hydroxy-ethoxy)-phenylamino]-pyrido[2,3-d]pyrimidine-7-carboxylic acid amide], for which the IC50 in assay [1] is 7.6 nM; in assay [2] it was 2.2 nM.

As for `O=C(NCCO)c1nc2nc(Nc3ccc(OCCO)cc3)ncc2cc1-c1c(Cl)cccc1Cl` [Example 6-1, 6-(2,6-Dichloro-phenyl)-2-[4-(2-hydroxy-ethoxy)-phenylamino]-pyrido[2,3-d]pyrimidine-7-carboxylic acid (2-hydroxy-ethyl)-amide], the 50% inhibitory concentration (IC50) in assay [1] worked out at 8.2 nM; in assay [2], 5.4 nM.

Turning to `O=C(NCCO)c1nc2nc(Nc3ccc(N4CCOCC4)cc3)ncc2cc1-c1c(Cl)cccc1Cl` [Example 6-2, 6-(2,6-Dichloro-phenyl)-2-(4-morpholin-4-yl-phenylamino)-pyrido[2,3-d]pyrimidine-7-carboxylic acid (2-hydroxy-ethyl)-amide], the 50% inhibitory concentration (IC50) in assay [1] came to 4.1 nM; in assay [2] it was 1.8 nM.

As for `CS(=O)(=O)NCCNC(=O)c1nc2nc(Nc3ccc(N4CCOCC4)cc3)ncc2cc1-c1c(Cl)cccc1Cl` [Example 6-3, 6-(2,6-Dichloro-phenyl)-2-(4-morpholin-4-yl-phenylamino)-pyrido[2,3-d]pyrimidine-7-carboxylic acid (2-methanesulfonylamino-ethyl)-amide], the IC50 was determined as 1.5 nM in assay [1] and 0.9 nM in assay [2].

`CS(=O)(=O)NCCNC(=O)c1nc2nc(Nc3ccc(OCCO)cc3)ncc2cc1-c1c(Cl)cccc1Cl` [Example 6-4, 6-(2,6-Dichloro-phenyl)-2-[4-(2-hydroxy-ethoxy)-phenylamino]-pyrido[2,3-d]pyrimidine-7-carboxylic acid (2-methanesulfonylamino-ethyl)-amide]: the IC50 in assay [1] stood at 1.6 nM; in assay [2] it was 1.1 nM.

In the case of `O=C(NC[C@H]1CCCN1)c1nc2nc(Nc3ccc(OCCO)cc3)ncc2cc1-c1c(Cl)cccc1Cl` [Example 6-5, 6-(2,6-Dichloro-phenyl)-2-[4-(2-hydroxy-ethoxy)-phenylamino]-pyrido[2,3-d]pyrimidine-7-carboxylic acid ((R)-1-pyrrolidin-2-ylmethyl)-amide], the IC50 in assay [1] is 1.7 nM; in assay [2], 0.6 nM.

For the compound `CS(=O)(=O)NCCNC(=O)c1nc2nc(Nc3cccc(NS(C)(=O)=O)c3)ncc2cc1-c1c(Cl)cccc1Cl` [Example 6-6, 6-(2,6-Dichloro-phenyl)-2-(3-methanesulfonylamino-phenylamino)-pyrido[2,3-d]pyrimidine-7-carboxylic acid (2-methanesulfonylamino-ethyl)-amide], the IC50 came to 1.3 nM in assay [1] and 0.2 nM in assay [2].

For the compound `CSc1cccc(Nc2ncc3cc(-c4c(Cl)cccc4Cl)c(C(=O)NCCNS(C)(=O)=O)nc3n2)c1` [Example 6-7, 6-(2,6-Dichloro-phenyl)-2-(3-methylsulfanyl-phenylamino)-pyrido[2,3-d]pyrimidine-7-carboxylic acid (2-methanesulfonylamino-ethyl)-amide], the IC50 in assay [1] came out at 9.9 nM; in assay [2] it was 2.5 nM.

Take `Cc1ccc(Nc2ncc3cc(-c4c(Cl)cccc4Cl)c(C(=O)NCCNS(C)(=O)=O)nc3n2)cn1` [Example 6-8, 6-(2,6-Dichloro-phenyl)-2-(6-methyl-pyridin-3-ylamino)-pyrido[2,3-d]pyrimidine-7-carboxylic acid (2-methanesulfonylamino-ethyl)-amide]: the IC50 in assay [1] was determined as 7.8 nM; in assay [2] it was 4.7 nM.

As for `CCN(CC)CCOc1ccc(Nc2ncc3cc(-c4c(Cl)cccc4Cl)c(C#N)nc3n2)cc1` [Example 7-1, 6-(2,6-Dichloro-phenyl)-2-[4-(2-diethylamino-ethoxy)-phenylamino]-pyrido[2,3-d]pyrimidine-7-carbonitrile], the values for the half-inhibitory concentration (IC50) in assay [1] and in assay [2] were 2.7 nM and 0.5 nM, respectively.

As for `N#Cc1nc2nc(Nc3ccc(N4CCOCC4)cc3)ncc2cc1-c1c(Cl)cccc1Cl` [Example 7-2, 6-(2,6-Dichloro-phenyl)-2-(4-morpholin-4-yl-phenylamino)-pyrido[2,3-d]pyrimidine-7-carbonitrile], the figures for the IC50 in assay [1] and in assay [2] were 11.7 nM and 1.3 nM, respectively.

Consider `NC(=O)c1nc2nc(Nc3ccc(N4CCOCC4)cc3)ncc2cc1-c1c(Cl)cccc1Cl` [Example 8-1, 6-(2,6-Dichloro-phenyl)-2-(4-morpholin-4-yl-phenylamino)-pyrido[2,3-d]pyrimidine-7-carboxylic acid amide], for which the IC50 in assay [1] amounted to 3.7 nM; in assay [2], 1 nM.

For the origin of these results see US7189732B2, “Pyrido[2,3-d]pyrimidine dichloro-phenyl derivatives” (Hoffman-La Roche Inc., priority 2004, dated 2007).
